Measurements: article PMC7549094 (Journal of Medicinal Chemistry, 2020)

Columns and labels:
hr 5-HT2B ag = hr 5-HT2B ag (Homo sapiens, UniProt P41595); assay: receptor profile (Table S4); type: biochemical
Cav1.2 = Cav1.2 (Homo sapiens, UniProt Q13936); assay: receptor profile (Table S4); conditions: human
hr Cav1.2 = hr Cav1.2 (Homo sapiens, UniProt Q13936); assay: receptor profile (Table S4); conditions: hr Cav1.2
hr OpM = hr OpM (Homo sapiens, UniProt P35372); assay: receptor profile (Table S4); type: binding
hr Al2A antag = biological target: T1, hr Al2A antag (Homo sapiens, UniProt P08913); assay: receptor profile (Table S4); type: biochemical
T1 sequence (P08913 1-465): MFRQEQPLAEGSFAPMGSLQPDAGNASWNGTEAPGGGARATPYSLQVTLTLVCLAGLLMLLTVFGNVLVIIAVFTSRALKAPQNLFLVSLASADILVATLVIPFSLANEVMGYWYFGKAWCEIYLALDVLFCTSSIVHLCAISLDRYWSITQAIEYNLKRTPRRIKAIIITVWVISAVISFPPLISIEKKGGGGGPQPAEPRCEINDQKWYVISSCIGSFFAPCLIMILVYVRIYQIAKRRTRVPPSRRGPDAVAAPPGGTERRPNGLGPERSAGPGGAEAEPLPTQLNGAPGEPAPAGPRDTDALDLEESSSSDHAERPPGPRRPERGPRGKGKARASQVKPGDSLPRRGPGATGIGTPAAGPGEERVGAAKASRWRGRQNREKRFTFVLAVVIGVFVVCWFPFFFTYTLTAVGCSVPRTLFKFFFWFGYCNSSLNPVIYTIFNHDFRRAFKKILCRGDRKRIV

hr MC3 = hr MC3 (Homo sapiens, UniProt P41968); assay: receptor profile (Table S4); type: binding
hr CB1 antag = hr CB1 antag (Homo sapiens, UniProt P21554); assay: receptor profile (Table S4); type: biochemical
hr COX-2 = biological target: T2, hr COX-2 (Homo sapiens, UniProt P35354); assay: receptor profile (Table S4); type: biochemical
T2 sequence (P35354 18-604): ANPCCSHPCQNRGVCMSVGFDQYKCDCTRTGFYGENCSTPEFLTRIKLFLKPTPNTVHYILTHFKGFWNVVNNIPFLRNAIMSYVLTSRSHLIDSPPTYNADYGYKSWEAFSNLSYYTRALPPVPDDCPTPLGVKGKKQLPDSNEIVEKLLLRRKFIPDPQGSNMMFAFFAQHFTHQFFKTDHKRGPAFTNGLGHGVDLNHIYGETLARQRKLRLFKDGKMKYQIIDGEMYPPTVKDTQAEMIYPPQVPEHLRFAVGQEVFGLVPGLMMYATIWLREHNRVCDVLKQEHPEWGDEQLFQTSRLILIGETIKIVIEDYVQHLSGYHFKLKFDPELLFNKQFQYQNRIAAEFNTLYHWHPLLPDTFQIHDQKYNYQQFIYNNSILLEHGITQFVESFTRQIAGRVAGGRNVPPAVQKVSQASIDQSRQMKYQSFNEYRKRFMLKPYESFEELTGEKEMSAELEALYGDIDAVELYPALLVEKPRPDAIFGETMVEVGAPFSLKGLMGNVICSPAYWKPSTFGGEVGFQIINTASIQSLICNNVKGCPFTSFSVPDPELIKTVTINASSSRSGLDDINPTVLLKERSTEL

hr Ad1 = biological target: T3, hr Ad1 (Homo sapiens, UniProt P30542); assay: receptor profile (Table S4); type: binding
T3 sequence (P30542 1-326): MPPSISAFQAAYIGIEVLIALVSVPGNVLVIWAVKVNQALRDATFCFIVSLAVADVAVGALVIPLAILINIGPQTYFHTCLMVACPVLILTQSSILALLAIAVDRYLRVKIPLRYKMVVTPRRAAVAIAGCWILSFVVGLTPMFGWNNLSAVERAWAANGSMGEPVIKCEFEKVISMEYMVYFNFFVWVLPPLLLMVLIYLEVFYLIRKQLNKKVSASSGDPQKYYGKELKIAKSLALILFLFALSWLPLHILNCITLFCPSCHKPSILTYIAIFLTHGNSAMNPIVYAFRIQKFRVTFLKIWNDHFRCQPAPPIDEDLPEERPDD

[1] = biological target: T4, purified L. donovani proteasome (Leishmania donovani, UniProt A0A3Q8IIY4+A0A3S7XA80); assay: chymotrypsin-like activity of purified L. donovani proteasome; type: biochemical; conditions: half-maximum inhibition of chymotrypsin-like activity of purified L. donovani proteasome; mean, n = 4 technical replicates
T4 sequence (A0A3Q8IIY4 100-302): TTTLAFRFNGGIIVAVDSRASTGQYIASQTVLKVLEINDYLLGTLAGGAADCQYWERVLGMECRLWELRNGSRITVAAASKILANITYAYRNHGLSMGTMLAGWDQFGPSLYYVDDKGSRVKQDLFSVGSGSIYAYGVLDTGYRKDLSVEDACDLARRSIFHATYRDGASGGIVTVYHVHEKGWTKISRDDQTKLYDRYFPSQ
T4 sequence (A0A3S7XA80 1-206): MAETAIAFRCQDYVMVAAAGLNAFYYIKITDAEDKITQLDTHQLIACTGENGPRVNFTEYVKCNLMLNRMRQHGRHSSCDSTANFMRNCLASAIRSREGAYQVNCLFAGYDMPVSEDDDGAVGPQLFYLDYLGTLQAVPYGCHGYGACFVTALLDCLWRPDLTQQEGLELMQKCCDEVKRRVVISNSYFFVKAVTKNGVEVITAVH

Chain of hr OpM (P35372 whole entry): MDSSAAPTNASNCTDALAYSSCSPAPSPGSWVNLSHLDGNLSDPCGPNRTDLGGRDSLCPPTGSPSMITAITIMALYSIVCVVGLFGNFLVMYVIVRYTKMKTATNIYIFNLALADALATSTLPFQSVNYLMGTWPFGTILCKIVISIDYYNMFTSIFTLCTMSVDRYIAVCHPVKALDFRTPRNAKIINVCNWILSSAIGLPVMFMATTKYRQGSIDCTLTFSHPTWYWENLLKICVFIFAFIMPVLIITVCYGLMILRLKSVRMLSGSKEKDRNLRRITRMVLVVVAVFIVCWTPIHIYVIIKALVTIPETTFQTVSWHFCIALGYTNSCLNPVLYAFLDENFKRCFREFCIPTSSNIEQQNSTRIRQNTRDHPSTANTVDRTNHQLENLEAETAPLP
Chain of hr MC3 (P41968 whole entry): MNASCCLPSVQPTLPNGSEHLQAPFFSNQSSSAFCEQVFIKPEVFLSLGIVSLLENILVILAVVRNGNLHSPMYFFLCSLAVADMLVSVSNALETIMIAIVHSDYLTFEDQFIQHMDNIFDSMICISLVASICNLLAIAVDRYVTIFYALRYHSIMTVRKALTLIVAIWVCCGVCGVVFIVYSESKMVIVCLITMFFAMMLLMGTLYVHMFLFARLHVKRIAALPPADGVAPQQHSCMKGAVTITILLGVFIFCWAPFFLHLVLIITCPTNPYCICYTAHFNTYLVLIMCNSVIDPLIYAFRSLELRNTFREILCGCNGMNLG
Chain of hr 5-HT2B ag (P41595 whole entry): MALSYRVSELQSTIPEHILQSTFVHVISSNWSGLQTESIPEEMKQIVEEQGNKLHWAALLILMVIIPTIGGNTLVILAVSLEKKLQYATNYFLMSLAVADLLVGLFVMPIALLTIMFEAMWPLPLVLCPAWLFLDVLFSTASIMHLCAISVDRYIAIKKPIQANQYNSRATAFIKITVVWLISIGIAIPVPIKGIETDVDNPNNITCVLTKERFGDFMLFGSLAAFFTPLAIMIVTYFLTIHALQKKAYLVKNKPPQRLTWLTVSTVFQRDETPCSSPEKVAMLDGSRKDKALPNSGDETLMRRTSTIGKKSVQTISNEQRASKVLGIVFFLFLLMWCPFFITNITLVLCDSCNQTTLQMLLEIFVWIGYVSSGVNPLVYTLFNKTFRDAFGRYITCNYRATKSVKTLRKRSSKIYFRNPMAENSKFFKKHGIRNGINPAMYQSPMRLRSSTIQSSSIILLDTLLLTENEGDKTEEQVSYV
Chain of hr CB1 antag (P21554 whole entry): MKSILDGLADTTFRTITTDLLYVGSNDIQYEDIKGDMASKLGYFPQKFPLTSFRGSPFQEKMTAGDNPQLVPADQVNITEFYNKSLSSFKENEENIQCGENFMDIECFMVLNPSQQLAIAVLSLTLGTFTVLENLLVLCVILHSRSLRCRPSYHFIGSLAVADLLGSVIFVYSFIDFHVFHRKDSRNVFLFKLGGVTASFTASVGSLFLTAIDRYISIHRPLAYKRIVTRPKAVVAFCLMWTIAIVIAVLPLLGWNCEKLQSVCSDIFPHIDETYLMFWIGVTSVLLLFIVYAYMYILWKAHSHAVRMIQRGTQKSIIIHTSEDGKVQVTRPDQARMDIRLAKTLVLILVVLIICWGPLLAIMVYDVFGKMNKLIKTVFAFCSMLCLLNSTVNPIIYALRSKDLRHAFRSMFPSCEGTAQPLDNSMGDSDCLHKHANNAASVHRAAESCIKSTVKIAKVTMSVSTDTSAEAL

Q: What does the source list for Cc1nc(C)c(C(=O)Nc2ccc(F)c(-c3nc4ncc(-c5ncccc5C)cn4n3)c2)o1 [compound 1, N-(4-Fluoro-3-(6-(3-methylpyridin-2-yl)-[1,2,4]triazolo[1,5-a]pyrimidin-2-yl)phenyl)-2,4-dimethyloxazole-5-carboxamide]?
A: EC50/IC50 (hr 5-HT2B ag; hr 5-HT2B ag): > 30 µM; inhibition at 10 µM (hr 5-HT2B ag; read-out: % inh/act @ 10 µM): -6%; inhibition at 30 µM (hr 5-HT2B ag; read-out: % inh/act @ 30 µM): -3%; inhibition at 10 µM (Cav1.2): -3%; inhibition at 30 µM (Cav1.2): -7%; EC50/IC50 (hr Cav1.2): > 50 µM; % inh/act @ 10 µM (hr GABAA antag): -5%; % inh/act @ 30 µM (hr GABAA antag): -4%; EC50/IC50 (hr OpM; hr OpM): > 30 µM; inhibition at 10 µM (hr OpM; read-out: % inh/act @ 10 µM): 18%; inhibition at 30 µM (hr OpM; read-out: % inh/act @ 30 µM): 19%; EC50/IC50 (hr Al2A antag; hr Al2A antag): > 30 µM; inhibition at 10 µM (hr Al2A antag; read-out: % inh/act @ 10 µM): 20%; inhibition at 30 µM (hr Al2A antag; read-out: % inh/act @ 30 µM): 22%; EC50/IC50 (hr MC3; hr MC3): > 30 µM; inhibition at 10 µM (hr MC3; read-out: % inh/act @ 10 µM): 10%; inhibition at 30 µM (hr MC3; read-out: % inh/act @ 30 µM): 24%; EC50/IC50 (hr CB1 antag; hr CB1 antag): > 30 µM; inhibition at 10 µM (hr CB1 antag; read-out: % inh/act @ 10 µM): -47%; inhibition at 30 µM (hr CB1 antag; read-out: % inh/act @ 30 µM): -57%; EC50/IC50 (hr COX-2; hr COX-2): > 30 µM; inhibition at 10 µM (hr COX-2; read-out: % inh/act @ 10 µM): 9%; inhibition at 30 µM (hr COX-2; read-out: % inh/act @ 30 µM): 13%; EC50/IC50 (hr Ad1; hr Ad1): > 30 µM; inhibition at 10 µM (hr Ad1; read-out: % inh/act @ 10 µM): 10%; inhibition at 30 µM (hr Ad1; read-out: % inh/act @ 30 µM): 27%; IC50 [1]: 0.04 µM
